The values that follow come from ChEMBL document CHEMBL5291721, “A preclinical secondary pharmacology resource illuminates target-adverse drug reaction associations of marketed drugs” (Nat Commun, 2023).

Assay [1] addresses T1, Alpha-2A adrenergic receptor (Homo sapiens, UniProt P08913).
T1 sequence (P08913 whole entry): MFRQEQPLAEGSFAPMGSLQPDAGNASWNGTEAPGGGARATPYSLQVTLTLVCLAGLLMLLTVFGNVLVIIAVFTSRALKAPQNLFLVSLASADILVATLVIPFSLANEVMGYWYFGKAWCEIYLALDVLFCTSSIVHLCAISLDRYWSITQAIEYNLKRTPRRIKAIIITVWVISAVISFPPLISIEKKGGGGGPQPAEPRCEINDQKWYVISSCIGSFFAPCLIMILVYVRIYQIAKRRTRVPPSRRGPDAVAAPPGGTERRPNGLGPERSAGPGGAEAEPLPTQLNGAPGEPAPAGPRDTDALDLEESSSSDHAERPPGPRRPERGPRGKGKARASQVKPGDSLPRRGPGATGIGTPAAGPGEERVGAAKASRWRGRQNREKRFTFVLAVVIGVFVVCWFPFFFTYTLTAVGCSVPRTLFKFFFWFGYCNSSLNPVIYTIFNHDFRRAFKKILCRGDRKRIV
Format: functional, cell-based.

In assay [2] the target is Beta-2 adrenergic receptor (Homo sapiens, UniProt P07550).
For assay [3], the target named is T2, 5-hydroxytryptamine receptor 1A (Homo sapiens, UniProt P08908).
T2 sequence (P08908 whole entry): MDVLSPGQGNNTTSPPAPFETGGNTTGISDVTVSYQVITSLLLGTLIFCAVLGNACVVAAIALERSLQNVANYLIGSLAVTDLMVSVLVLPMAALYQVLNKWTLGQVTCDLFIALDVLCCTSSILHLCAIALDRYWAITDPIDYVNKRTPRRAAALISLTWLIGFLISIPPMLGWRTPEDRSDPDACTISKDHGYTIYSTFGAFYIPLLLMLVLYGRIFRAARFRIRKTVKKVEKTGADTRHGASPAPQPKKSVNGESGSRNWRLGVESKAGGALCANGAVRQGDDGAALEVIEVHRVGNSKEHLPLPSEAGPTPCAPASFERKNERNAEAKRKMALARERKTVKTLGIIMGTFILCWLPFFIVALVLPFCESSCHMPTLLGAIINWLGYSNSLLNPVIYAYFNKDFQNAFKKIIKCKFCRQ
It is filed as functional, cell-based.

In the next assay the target is Melanocortin receptor 4 (Homo sapiens, UniProt P32245).
Assay [4] has as its target Delta-type opioid receptor (Homo sapiens, UniProt P41143).
Assay [5] deals with 3',5'-cyclic-AMP phosphodiesterase 4D (Homo sapiens, UniProt Q08499). It is filed as functional.
For assay [6], the target named is T3, Muscarinic acetylcholine receptor M2 (Homo sapiens, UniProt P08172).
T3 sequence (P08172 whole entry): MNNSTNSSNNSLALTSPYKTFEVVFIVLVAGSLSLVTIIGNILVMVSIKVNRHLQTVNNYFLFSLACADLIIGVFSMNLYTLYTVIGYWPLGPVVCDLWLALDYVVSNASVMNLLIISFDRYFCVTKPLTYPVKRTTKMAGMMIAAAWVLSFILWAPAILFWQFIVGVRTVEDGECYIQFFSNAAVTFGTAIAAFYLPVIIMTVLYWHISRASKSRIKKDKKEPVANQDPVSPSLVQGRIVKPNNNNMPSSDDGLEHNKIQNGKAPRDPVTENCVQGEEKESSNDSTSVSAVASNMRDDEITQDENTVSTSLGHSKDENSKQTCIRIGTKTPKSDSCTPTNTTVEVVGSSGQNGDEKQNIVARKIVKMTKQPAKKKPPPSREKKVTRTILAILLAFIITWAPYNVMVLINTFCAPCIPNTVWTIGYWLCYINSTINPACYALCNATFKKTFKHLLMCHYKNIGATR
Format: functional, cell-based.

In assay [7] the target is T4, D(1A) dopamine receptor (Homo sapiens, UniProt P21728). Format: functional, cell-based.
The target of assay [8] is T4, D(1A) dopamine receptor.
Assay [9] concerns the target Gamma-aminobutyric acid receptor subunit alpha-1 (Rattus norvegicus, UniProt P62813). Format: functional.
In assay [10] the target is T5, Prostaglandin G/H synthase 1 (Homo sapiens, UniProt P23219). It is filed as functional.
In assay [11] the target is T5, Prostaglandin G/H synthase 1. Format: functional. This is another data set of the same source.
In assay [12] the target is Voltage-dependent L-type calcium channel subunit alpha-1C (Rattus norvegicus, UniProt P22002). Format: functional.
The next assay has as its target T6, Progesterone receptor (Homo sapiens, UniProt P06401).
T6 sequence (P06401 whole entry): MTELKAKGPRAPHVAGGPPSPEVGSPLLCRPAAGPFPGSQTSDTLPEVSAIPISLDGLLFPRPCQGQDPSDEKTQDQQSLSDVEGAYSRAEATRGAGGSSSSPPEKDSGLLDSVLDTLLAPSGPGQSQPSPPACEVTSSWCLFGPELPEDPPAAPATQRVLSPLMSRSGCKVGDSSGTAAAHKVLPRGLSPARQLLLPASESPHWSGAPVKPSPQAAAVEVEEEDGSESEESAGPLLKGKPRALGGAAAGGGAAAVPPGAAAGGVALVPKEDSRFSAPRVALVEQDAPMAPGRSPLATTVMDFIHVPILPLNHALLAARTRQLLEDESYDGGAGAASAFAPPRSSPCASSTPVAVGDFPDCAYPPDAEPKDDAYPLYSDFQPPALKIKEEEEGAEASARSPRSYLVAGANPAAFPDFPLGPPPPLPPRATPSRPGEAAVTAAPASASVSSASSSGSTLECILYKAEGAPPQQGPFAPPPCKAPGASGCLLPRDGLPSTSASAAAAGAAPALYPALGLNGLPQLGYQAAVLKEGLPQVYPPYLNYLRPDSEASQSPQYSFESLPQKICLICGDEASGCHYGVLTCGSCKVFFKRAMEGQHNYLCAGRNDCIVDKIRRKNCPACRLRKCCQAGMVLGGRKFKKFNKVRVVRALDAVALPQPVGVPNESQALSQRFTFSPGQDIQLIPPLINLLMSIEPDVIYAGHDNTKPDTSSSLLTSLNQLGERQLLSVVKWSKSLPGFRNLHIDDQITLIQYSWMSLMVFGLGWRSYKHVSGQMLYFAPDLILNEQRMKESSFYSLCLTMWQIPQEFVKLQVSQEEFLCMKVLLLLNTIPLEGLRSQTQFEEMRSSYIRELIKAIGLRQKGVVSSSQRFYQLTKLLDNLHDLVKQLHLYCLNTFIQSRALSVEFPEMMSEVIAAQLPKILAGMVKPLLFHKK
It is filed as functional.
Note: assay procedure not described here.

Voltage-dependent L-type calcium channel subunit alpha-1C, sequence (P22002 whole entry): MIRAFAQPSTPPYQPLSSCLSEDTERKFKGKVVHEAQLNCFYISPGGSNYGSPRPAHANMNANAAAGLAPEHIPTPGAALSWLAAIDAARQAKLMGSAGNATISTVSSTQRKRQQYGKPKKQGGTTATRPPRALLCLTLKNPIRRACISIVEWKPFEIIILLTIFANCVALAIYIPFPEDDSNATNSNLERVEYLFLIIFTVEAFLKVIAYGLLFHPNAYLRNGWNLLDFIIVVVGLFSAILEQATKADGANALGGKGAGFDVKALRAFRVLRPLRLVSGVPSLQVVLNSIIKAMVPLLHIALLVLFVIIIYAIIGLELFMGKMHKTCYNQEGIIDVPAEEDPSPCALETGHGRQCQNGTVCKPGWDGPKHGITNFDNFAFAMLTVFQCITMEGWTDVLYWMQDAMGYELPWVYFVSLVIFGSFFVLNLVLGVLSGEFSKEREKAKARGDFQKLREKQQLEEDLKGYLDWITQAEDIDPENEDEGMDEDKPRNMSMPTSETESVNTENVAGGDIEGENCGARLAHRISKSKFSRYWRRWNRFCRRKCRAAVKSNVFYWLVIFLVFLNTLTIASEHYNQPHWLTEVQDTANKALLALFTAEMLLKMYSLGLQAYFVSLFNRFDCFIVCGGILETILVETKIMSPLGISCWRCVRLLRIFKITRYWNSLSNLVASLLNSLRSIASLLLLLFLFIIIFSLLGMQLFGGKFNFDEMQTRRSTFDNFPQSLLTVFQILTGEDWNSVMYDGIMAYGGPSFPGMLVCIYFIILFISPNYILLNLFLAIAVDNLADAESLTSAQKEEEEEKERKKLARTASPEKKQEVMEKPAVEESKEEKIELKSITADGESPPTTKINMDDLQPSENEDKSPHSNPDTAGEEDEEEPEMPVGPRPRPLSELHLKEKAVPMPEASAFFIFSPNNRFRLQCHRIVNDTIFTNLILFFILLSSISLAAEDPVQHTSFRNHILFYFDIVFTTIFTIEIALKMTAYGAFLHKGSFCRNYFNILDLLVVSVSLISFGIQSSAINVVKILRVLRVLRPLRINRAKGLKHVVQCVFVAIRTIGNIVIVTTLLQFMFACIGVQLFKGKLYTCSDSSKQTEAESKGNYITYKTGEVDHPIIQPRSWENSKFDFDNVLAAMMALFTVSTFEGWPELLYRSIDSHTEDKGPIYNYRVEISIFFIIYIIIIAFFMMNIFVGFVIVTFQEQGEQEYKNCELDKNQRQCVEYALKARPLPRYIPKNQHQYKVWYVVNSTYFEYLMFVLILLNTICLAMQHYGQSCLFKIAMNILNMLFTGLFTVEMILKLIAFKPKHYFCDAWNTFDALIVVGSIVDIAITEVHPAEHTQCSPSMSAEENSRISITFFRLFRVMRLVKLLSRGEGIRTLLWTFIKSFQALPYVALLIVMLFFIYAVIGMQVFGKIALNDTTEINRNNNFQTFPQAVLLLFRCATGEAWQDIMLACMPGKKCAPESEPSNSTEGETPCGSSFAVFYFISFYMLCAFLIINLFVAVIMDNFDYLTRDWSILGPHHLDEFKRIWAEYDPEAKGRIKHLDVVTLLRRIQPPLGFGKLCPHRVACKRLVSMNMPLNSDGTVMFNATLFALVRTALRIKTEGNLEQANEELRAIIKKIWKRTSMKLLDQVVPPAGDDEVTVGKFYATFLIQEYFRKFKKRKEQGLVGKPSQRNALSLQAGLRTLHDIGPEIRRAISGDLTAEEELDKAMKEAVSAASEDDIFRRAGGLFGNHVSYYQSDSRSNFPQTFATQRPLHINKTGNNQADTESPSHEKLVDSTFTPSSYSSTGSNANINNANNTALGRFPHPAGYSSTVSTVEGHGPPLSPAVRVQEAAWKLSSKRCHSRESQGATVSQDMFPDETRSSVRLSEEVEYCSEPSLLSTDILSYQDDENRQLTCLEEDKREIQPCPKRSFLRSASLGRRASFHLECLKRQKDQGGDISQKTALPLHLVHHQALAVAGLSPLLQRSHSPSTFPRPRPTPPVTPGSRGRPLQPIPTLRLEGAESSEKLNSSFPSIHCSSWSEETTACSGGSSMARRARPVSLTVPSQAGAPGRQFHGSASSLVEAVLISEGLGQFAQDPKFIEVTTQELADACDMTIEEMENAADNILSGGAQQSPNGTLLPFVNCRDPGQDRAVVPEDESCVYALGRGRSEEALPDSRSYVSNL
T4 sequence (P21728 whole entry): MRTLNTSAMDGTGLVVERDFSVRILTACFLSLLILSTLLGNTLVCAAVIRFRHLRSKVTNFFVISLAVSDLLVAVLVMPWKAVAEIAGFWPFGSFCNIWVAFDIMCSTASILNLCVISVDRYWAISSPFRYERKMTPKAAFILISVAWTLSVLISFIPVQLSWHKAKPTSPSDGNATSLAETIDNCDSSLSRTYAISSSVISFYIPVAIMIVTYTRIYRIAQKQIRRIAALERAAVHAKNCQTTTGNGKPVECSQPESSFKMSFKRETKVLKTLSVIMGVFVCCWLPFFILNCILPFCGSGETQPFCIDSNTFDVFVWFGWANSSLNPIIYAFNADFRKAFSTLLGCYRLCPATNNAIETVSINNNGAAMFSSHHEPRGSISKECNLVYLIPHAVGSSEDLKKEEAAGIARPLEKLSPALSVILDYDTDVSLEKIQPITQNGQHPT
Beta-2 adrenergic receptor, sequence (P07550 whole entry): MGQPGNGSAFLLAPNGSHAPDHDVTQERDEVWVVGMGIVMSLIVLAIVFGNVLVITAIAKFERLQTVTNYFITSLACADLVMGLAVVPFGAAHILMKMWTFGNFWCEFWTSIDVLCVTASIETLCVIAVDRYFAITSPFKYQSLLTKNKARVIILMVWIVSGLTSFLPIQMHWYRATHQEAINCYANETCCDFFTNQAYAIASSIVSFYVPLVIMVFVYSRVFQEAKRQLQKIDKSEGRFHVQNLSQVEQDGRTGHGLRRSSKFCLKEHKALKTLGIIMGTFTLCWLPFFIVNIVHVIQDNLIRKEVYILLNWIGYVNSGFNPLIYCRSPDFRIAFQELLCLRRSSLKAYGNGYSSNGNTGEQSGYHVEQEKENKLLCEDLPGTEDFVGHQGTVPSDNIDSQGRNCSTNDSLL
Delta-type opioid receptor, sequence (P41143 whole entry): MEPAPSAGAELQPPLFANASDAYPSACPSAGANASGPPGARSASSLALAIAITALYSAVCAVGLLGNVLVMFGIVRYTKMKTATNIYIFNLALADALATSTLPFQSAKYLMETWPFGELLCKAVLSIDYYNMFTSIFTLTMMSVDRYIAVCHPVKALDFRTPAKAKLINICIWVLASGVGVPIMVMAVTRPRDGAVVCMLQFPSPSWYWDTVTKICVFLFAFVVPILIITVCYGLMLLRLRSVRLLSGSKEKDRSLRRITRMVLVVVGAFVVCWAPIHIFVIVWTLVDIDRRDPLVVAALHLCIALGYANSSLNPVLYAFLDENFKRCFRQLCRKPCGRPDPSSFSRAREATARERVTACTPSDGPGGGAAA
Gamma-aminobutyric acid receptor subunit alpha-1, sequence (P62813 whole entry): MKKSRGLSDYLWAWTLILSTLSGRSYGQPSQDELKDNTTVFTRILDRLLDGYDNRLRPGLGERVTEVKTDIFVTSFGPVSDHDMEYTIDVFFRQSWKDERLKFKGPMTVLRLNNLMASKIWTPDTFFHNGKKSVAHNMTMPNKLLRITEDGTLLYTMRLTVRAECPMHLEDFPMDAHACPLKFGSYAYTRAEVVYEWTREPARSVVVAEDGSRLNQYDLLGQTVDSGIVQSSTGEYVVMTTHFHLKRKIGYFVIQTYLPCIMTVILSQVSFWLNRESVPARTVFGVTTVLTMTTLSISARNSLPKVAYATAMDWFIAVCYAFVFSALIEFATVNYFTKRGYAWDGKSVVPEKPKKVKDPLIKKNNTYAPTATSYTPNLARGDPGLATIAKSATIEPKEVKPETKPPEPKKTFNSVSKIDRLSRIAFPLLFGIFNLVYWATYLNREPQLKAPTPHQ
T5 sequence (P23219 whole entry): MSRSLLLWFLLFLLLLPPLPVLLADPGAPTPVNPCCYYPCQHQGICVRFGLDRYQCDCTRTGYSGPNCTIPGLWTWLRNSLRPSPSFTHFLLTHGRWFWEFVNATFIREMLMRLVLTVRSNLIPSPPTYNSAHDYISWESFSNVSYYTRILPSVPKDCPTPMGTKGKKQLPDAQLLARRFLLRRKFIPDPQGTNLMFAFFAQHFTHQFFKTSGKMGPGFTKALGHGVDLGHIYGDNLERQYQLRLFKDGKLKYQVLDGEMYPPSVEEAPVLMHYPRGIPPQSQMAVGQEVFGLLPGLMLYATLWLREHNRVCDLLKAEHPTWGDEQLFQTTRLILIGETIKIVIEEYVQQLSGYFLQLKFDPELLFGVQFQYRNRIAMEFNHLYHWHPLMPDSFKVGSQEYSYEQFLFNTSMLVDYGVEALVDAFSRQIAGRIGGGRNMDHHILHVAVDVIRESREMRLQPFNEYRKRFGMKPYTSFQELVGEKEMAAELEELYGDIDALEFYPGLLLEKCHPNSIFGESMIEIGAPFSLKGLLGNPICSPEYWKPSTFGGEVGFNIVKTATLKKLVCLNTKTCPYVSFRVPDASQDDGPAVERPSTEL
Melanocortin receptor 4, sequence (P32245 whole entry): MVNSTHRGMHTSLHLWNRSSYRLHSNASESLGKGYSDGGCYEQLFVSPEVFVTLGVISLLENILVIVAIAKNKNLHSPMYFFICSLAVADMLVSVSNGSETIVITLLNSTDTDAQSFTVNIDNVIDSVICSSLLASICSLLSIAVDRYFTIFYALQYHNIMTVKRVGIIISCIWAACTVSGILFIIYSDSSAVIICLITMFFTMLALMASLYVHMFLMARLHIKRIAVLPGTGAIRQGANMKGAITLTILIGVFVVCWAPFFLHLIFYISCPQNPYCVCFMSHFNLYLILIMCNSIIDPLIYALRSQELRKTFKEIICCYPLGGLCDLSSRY

`O=C(O)COCCN1CCN(C(c2ccccc2)c2ccc(Cl)cc2)CC1` (centres undefined) [CETIRIZINE]: the AC50 is greater than 10 µM in assay [1]; greater than 10 µM in [2]; greater than 10 µM in assay [3]; greater than 30 µM at Melanocortin receptor 4; greater than 30 µM in assay [4]; greater than 30 µM in [5].
Consider `NC[C@H]1CC[C@H](C(=O)Oc2ccc(CCC(=O)O)cc2)CC1` [CETRAXATE], for which the AC50 (in [1]; in assay [6]; on D(1A) dopamine receptor [7]; on D(1A) dopamine receptor [8]; in assay [9]; in [3]) was greater than 30 µM each time. For the same compound, the AC50 in assay [4], in [5], in assay [10] and in [11] was greater than 30 µM in each case.
Consider `N#Cc1ccc(Oc2ccc3c(c2)COB3O)cc1` [CRISABOROLE], for which the AC50 on D(1A) dopamine receptor [8] is greater than 30 µM; in assay [5], 0.8 µM; in [10], greater than 30 µM; in assay [11], greater than 30 µM.
As to `CN(C)CCCN1c2ccccc2CCc2ccccc21` [IMIPRAMINE], the AC50 is greater than 10 µM in assay [1]; greater than 10 µM in assay [2]; 4.3 µM in assay [6]; greater than 10 µM on D(1A) dopamine receptor [7]; greater than 10 µM in [9]; greater than 10 µM in [3]. Further, the values for the AC50 (on Melanocortin receptor 4; in assay [4]; in assay [5]) were 21.4 µM, greater than 10 µM and greater than 10 µM, respectively.
As to `CCC[C@@H]1C[C@@H](C(=O)N[C@@H]([C@H]2O[C@H](SC)[C@H](O)[C@@H](O)[C@H]2O)[C@@H](C)O)N(C)C1` [LINCOMYCIN], the AC50 is greater than 30 µM in [1]; greater than 10 µM in [2]; greater than 10 µM in assay [12]; greater than 10 µM in assay [6]; greater than 10 µM on D(1A) dopamine receptor [7]; greater than 10 µM in assay [9]. For the same compound, the AC50 in assay [3] is greater than 10 µM; at Melanocortin receptor 4, greater than 10 µM; in [4], greater than 30 µM; in assay [5] it was greater than 30 µM.
With `O=C1c2cccc3c2[C@H](CCC3)CN1[C@@H]1CN2CCC1CC2` [PALONOSETRON], the AC50 (in [1]; in [2]; in assay [12]; in assay [6]; at D(1A) dopamine receptor [7]; in assay [9]) was greater than 30 µM each time. The AC50 (on Melanocortin receptor 4; in assay [4]; in assay [5]; at Progesterone receptor) was greater than 30 µM in each case.
With `C[C@@H]1C[C@H]2[C@@H]3C[C@H](F)C4=CC(=O)C=C[C@]4(C)[C@H]3[C@@H](O)C[C@]2(C)[C@@]1(O)C(=O)CO` [PARAMETHASONE], the AC50 (at D(1A) dopamine receptor [8]; in assay [10]; in assay [11]) was greater than 30 µM in each case.
`CCC[C@H](N[C@@H](C)C(=O)N1[C@H](C(=O)O)C[C@@H]2CCCC[C@@H]21)C(=O)OCC` [PERINDOPRIL]: the AC50 (on D(1A) dopamine receptor [8]; in assay [10]; in [11]) was greater than 30 µM in each case.
`NNCCc1ccccc1` [PHENELZINE]: the results for the AC50 (at D(1A) dopamine receptor [8]; in assay [10]; in assay [11]) were greater than 30 µM, 0.891 µM and 0.5 µM, respectively.
In the same order, the values of `N[C@@H](Cc1ccccc1)C(=O)O` [PHENYLALANINE] are greater than 30 µM, 28 µM and greater than 30 µM.
In the same order, the values of `CCCn1cnc2c1c(=O)n(CCCCC(C)=O)c(=O)n2C` [PROPENTOFYLLINE] are greater than 30 µM, greater than 30 µM and greater than 30 µM.
For `Clc1ccc(C(Cn2ccnc2)OCc2csc3c(Cl)cccc23)c(Cl)c1` (centres undefined) [SERTACONAZOLE], the AC50 on D(1A) dopamine receptor [8] was determined as 5.39 µM; in assay [10], 7.68 µM; in assay [11] it was 5.34 µM.
Turning to `CC(OCCN1CCCCCC1)(c1ccccc1)c1ccc(Cl)cc1` (centres undefined) [SETASTINE], the values for the AC50 (on D(1A) dopamine receptor [8]; in [10]; in [11]) were 6.96 µM, greater than 30 µM and greater than 30 µM, respectively.
Regarding `C[C@]12CCC(=O)C[C@@H]1CC[C@@H]1[C@@H]2CC[C@]2(C)[C@@H](O)CC[C@@H]12` [STANOLONE], the AC50 (in assay [1]; in [2]; in [12]; in assay [6]; at D(1A) dopamine receptor [7]; in assay [9]) was greater than 30 µM throughout. The AC50 (on Melanocortin receptor 4; in assay [4]; in assay [5]) was greater than 30 µM each time.
Take `COc1cc(C)c2c(Oc3cccc(C(F)(F)F)c3)c(OC)cc(NC(C)CCCN)c2n1` (centres undefined) [TAFENOQUINE]: the values for the AC50 (at D(1A) dopamine receptor [8]; in assay [10]; in assay [11]) were 16.4 µM, 9.38 µM and 3.81 µM, respectively.
Consider `O=S1(=O)CCN(CN2CCS(=O)(=O)NC2)CN1` [TAUROLIDINE], for which the AC50 in [1] is greater than 30 µM; in assay [6] it was greater than 30 µM; at D(1A) dopamine receptor [7] it was greater than 30 µM; at D(1A) dopamine receptor [8], greater than 30 µM; in assay [9] it was greater than 10 µM; in assay [4], greater than 30 µM. Further, the AC50 (in [5]; on Progesterone receptor; in [10]; in assay [11]) was greater than 30 µM throughout.
`CCCSc1nc(N[C@@H]2C[C@H]2c2ccc(F)c(F)c2)c2nnn([C@@H]3C[C@H](OCCO)[C@@H](O)[C@H]3O)c2n1` [TICAGRELOR]: the AC50 on D(1A) dopamine receptor [8] was 14.9 µM; in [10] it was greater than 30 µM; in [11], 26.2 µM.
In the same order, the values of `c1ccc2c(SC3=NCCN3)c[nH]c2c1` [TINAZOLINE] are greater than 30 µM, greater than 30 µM and greater than 30 µM.
In the same order, the values of `Cc1ccc(C(=O)C(C)CN2CCCCC2)cc1` (centres undefined) [TOLPERISONE] are greater than 30 µM, greater than 30 µM and greater than 30 µM.
Regarding `COc1ccc2c(C(=S)N(C)CC(=O)O)cccc2c1C(F)(F)F` [TOLRESTAT], the AC50 (at D(1A) dopamine receptor [8]; in [10]; in assay [11]) was greater than 30 µM throughout.

What is called AC50 is the concentration at which the activity in the assay is half-maximal.
